Here are results for 39 molecules from patent US12421225B2, “Heteroaromatic amide derivative and medicament containing the same” (KAKEN PHARMACEUTICAL CO., LTD., priority 2018, dated 2025).

Molecules are shown by their SMILES.

Data set [1] addresses human Nav1.5 (Homo sapiens (Human), UniProt Q14524). Briefly: Human Nav1.5 inhibitory activity evaluation (automated patch clamp QPatch16X, HEK293 cells stably expressing human Nav1.5). The format is cell-based. The settings on record: human Nav1.5, automated patch clamp. The essentials:
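IC50 derived from concentration-response of inward current at the 20th of 20 action-potential-mimicking pulses (holding −80 mV, leak corrected with −100 mV step). HEK293 cells stably expressing human Nav1.5, room temperature, extracellular pH 7.4, intracellular CsF-based pH 7.3, 0.1% DMSO.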
A general note: In patch-clamp work, channel activity is measured electrically.

Data set [2] addresses human Nav1.7 (Homo sapiens (Human), UniProt Q15858). The data set is described as follows: Human Nav1.7 inhibitory activity evaluation (automated patch clamp QPatch16X, HEK293A cells stably expressing human Nav1.7 and human Navβ1). The format is cell-based. The conditions noted are these: human Nav1.7, automated patch clamp. The essentials:
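IC50 calculated from the concentration-response of inward current evoked by the second −10 mV, 50 ms depolarisation, which follows a 15 s conditioning step at roughly 30-40% inactivation and a 100 ms −120 mV interval. Cells: HEK293A expressing human Nav1.7/Navβ1, automated patch clamp, room temperature, 0.1% DMSO final.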

Sequence of human Nav1.5 (Q14524 whole entry): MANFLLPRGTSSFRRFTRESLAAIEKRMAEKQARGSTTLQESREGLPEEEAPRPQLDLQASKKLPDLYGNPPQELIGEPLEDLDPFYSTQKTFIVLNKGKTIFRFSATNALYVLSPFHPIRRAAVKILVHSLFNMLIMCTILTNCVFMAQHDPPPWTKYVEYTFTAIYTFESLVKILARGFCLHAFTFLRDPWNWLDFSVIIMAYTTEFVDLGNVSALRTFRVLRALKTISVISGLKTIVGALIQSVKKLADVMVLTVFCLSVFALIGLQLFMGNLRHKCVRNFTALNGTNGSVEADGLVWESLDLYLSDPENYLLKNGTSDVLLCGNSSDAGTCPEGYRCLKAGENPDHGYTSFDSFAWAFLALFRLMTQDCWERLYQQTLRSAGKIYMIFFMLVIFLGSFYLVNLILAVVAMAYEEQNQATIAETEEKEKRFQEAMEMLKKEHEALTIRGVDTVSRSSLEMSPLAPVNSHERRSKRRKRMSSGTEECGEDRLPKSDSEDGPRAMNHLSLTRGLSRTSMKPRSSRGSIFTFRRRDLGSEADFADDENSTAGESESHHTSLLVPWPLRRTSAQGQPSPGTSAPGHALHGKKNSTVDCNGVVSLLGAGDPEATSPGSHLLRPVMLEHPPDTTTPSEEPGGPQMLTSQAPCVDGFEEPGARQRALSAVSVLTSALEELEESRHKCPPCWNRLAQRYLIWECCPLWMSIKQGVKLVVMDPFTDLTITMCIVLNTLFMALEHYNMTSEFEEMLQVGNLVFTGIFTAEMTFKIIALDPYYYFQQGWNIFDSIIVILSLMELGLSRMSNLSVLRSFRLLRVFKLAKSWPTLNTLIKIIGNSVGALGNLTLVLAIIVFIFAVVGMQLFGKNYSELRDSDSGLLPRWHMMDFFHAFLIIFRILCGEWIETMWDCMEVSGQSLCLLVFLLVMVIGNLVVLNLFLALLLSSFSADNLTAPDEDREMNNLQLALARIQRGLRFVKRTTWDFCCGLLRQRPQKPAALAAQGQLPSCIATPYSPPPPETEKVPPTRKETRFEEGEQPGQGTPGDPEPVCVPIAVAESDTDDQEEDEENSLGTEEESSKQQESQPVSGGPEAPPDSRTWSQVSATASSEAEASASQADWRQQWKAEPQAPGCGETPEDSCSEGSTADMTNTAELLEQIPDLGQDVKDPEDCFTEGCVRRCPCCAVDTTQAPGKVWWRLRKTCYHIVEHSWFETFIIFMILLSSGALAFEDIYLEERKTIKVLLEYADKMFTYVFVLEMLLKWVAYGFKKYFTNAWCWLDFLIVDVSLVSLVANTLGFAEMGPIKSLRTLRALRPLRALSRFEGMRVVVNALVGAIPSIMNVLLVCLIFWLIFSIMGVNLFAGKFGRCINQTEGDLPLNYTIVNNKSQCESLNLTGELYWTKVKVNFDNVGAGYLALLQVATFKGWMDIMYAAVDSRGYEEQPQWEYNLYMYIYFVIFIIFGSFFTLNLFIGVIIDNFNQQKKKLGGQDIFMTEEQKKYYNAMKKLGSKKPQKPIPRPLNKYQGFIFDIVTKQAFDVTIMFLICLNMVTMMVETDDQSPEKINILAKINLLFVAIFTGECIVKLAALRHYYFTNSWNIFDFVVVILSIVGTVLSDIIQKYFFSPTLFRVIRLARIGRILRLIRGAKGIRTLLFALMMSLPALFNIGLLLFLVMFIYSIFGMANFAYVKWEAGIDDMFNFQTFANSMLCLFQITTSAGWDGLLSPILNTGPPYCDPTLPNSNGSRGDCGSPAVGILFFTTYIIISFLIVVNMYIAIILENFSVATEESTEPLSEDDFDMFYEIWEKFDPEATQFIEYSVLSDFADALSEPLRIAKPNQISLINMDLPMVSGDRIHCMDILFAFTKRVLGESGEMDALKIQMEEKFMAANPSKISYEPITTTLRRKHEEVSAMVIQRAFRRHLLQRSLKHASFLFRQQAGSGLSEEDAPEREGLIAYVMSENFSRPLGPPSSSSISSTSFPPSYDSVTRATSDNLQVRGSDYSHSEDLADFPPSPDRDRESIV
Sequence of human Nav1.7 (Q15858 whole entry): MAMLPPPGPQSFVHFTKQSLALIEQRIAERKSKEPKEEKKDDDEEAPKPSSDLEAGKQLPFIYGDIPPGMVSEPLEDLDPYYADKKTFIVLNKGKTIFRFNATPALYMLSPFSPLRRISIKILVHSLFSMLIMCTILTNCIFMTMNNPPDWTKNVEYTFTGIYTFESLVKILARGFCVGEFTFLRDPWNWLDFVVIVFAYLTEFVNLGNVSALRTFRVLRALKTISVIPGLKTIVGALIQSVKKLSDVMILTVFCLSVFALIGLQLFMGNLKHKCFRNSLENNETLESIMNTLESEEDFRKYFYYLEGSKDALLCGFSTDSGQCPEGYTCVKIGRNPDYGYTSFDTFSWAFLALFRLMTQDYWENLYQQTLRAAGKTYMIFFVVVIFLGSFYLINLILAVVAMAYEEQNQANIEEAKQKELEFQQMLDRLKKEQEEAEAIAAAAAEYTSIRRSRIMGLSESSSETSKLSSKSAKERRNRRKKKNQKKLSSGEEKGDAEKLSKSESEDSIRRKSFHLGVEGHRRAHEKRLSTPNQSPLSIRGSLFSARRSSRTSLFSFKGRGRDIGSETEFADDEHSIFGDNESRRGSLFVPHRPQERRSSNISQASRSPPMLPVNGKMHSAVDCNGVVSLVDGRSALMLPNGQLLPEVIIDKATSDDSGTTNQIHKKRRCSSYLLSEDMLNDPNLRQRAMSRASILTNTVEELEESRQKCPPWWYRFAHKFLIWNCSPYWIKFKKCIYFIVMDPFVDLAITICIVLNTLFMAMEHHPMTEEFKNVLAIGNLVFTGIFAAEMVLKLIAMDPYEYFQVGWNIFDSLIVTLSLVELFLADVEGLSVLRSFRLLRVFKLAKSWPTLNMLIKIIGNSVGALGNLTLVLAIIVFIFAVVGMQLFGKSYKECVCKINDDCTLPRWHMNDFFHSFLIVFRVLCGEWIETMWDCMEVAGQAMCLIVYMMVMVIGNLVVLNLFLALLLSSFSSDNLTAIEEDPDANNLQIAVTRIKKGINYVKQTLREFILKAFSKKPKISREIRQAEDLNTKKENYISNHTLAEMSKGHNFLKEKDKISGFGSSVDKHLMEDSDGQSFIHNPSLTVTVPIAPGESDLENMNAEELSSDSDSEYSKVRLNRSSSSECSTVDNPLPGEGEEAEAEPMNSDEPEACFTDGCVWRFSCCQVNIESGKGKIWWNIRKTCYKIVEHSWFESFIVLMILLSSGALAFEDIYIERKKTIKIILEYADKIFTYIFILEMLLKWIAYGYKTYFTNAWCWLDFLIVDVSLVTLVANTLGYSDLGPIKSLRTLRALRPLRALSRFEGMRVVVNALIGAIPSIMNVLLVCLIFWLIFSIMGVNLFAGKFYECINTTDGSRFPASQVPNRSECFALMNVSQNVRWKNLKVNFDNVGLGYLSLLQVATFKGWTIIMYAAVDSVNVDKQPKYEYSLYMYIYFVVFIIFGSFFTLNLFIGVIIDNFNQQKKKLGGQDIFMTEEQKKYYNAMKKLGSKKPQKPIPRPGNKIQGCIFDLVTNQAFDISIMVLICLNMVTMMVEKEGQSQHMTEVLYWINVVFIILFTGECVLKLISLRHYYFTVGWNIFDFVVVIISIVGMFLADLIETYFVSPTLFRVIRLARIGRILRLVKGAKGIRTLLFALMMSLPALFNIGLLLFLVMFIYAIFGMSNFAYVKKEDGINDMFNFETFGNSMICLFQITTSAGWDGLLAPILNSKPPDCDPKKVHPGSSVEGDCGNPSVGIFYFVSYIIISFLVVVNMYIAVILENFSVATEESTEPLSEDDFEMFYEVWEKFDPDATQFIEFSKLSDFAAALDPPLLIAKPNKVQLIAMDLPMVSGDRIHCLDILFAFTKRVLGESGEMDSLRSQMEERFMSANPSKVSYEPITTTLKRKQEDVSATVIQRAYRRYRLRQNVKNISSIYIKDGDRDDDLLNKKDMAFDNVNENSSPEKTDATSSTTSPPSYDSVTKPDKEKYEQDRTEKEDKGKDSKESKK
Sequence of human Nav1.7 (Q07699 19-218 partner): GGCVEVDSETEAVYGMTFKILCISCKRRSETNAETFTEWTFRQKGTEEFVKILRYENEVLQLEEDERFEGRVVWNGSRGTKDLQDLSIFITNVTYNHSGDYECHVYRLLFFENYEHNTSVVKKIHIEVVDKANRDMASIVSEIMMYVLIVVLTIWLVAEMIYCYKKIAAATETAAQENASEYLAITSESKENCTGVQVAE

In the case of `O=C(N[C@H]1COc2ccc(COc3ccccn3)cc2C1)c1cc2n(n1)CCC(C(F)(F)F)O2` (stereo partly drawn) [Example 392], the half-inhibitory concentration (IC50) in data set [1] is 1 to 3 µM; in data set [2] it was less than 1 µM.

Regarding `COC(C)(C)CCc1ccc2c(c1)C[C@@H](NC(=O)c1cc3n(n1)CCC(C(F)(F)F)O3)CO2` (stereo partly drawn) [Example 400], the concentration for half-maximal inhibition (IC50) in data set [1] is not below 3 µM; in data set [2], less than 1 µM.

For the molecule `O=C(N[C@H]1COc2ccc(CCN3CC(F)(F)C3)cc2C1)c1cc2n(n1)CCC(C(F)(F)F)O2` (stereo partly drawn) [Example 401], the IC50 in data set [1] is not below 3 µM; in data set [2] it was less than 10 µM.

Consider `O=C(N[C@H]1COc2ccc(C(F)(F)F)cc2C1)c1cc2n(n1)CCC(C#CC1CC1)O2` (stereo partly drawn) [Example 402], for which the IC50 is not below 3 µM in data set [1] and less than 1 µM in data set [2].

Turning to `N#Cc1ccc2c(c1)C[C@@H](NC(=O)c1cc3n(n1)CCC(COc1ccccn1)O3)CO2` (stereo partly drawn) [Example 411], the half-inhibitory concentration (IC50) in data set [1] is not below 3 µM; in data set [2], less than 1 µM.

Turning to `N#Cc1ccc2c(c1)C[C@@H](NC(=O)c1cc3n(n1)CCC(COCC(F)(F)C(F)(F)F)O3)CO2` (stereo partly drawn) [Example 412], the figures for the IC50 in data set [1] and in data set [2] were 1 to 3 µM and less than 1 µM, respectively.

For the molecule `N#Cc1ccc2c(c1)C[C@@H](NC(=O)c1cc3n(n1)CCC(CSCC(F)(F)F)O3)CO2` (stereo partly drawn) [Example 422], the values for the half-maximal inhibitory concentration (IC50) in data set [1] and in data set [2] were not below 3 µM and less than 10 µM, respectively.

In the case of `O=C(N[C@H]1COc2ccc(-c3cnccn3)cc2C1)c1cc2n(n1)CCC(COCC1CC1)O2` (stereo partly drawn) [Example 425], the IC50 was not below 3 µM in data set [1] and less than 1 µM in data set [2].

`Cn1ccc(-c2ccc3c(c2)C[C@@H](NC(=O)c2cc4n(n2)CCC(COCC2CC2)O4)CO3)n1` (stereo partly drawn) [Example 426]: the IC50 is not below 3 µM in data set [1] and less than 10 µM in data set [2].

Regarding `O=C(N[C@H]1COc2ccc(-c3cscn3)cc2C1)c1cc2n(n1)CCC(COCC1CC1)O2` (stereo partly drawn) [Example 427], the results for the IC50 in data set [1] and in data set [2] were 1 to 3 µM and less than 1 µM, respectively.

For `O=C(N[C@H]1COc2ccc(-c3cncs3)cc2C1)c1cc2n(n1)CCC(COCC1CC1)O2` (stereo partly drawn) [Example 428], the IC50 was not below 3 µM in data set [1] and less than 1 µM in data set [2].

On to `Cn1ncc(-c2ccc3c(c2)C[C@@H](NC(=O)c2cc4n(n2)CCC(COCC2CC2)O4)CO3)n1` (stereo partly drawn) [Example 429], for which the concentration for half-maximal inhibition (IC50) in data set [1] is not below 3 µM; in data set [2], less than 10 µM.

As for `O=C(N[C@H]1COc2ccc(C(F)(F)F)cc2C1)c1cc2n(n1)CCC(COCC(F)(F)F)O2` (stereo partly drawn) [Example 432], the half-inhibitory concentration (IC50) in data set [1] was 1 to 3 µM; in data set [2], less than 1 µM.

Turning to `O=C(N[C@H]1COc2ccc(CC(F)F)cc2C1)c1cc2n(n1)CCC(COC1CCC1)O2` (stereo partly drawn) [Example 437], the values for the half-inhibitory concentration (IC50) in data set [1] and in data set [2] were 1 to 3 µM and less than 1 µM, respectively.

Turning to `O=C(N[C@H]1COc2ccc(CCOC(F)(F)F)cc2C1)c1cc2n(n1)CC(C(F)(F)F)O2` (stereo partly drawn) [Example 447], the half-maximal inhibitory concentration (IC50) in data set [1] was not below 3 µM; in data set [2] it was less than 1 µM.

With `O=C(N[C@H]1COc2ccc(Cl)cc2C1)c1cc2n(n1)CC(CNCC(F)(F)F)O2` (stereo partly drawn) [Example 448], the IC50 is 1 to 3 µM in data set [1] and less than 1 µM in data set [2].

With `N#Cc1ccc2c(c1)C[C@@H](NC(=O)c1cc3n(n1)CC(COc1ccccn1)O3)CO2` (stereo partly drawn) [Example 450], the IC50 in data set [1] is not below 3 µM; in data set [2] it was less than 10 µM.

In the case of `O=C(N[C@H]1COc2ccc(Cl)cc2C1)c1cc2n(n1)CC(CCn1cccn1)O2` (stereo partly drawn) [Example 451], the IC50 in data set [1] is 1 to 3 µM; in data set [2], less than 1 µM.

As to `N#Cc1ccc2c(c1)C[C@@H](NC(=O)c1cc3n(n1)CC(COCC1CC1)O3)CO2` (stereo partly drawn) [Example 454], the IC50 in data set [1] is not below 3 µM; in data set [2], less than 10 µM.

`O=C(N[C@H]1COc2ccc(-c3cnccn3)cc2C1)c1cc2n(n1)CC(CCOCC(F)(F)F)O2` (stereo partly drawn) [Example 456]: the values for the IC50 in data set [1] and in data set [2] were 1 to 3 µM and less than 1 µM, respectively.

As to `Cn1ccc(-c2ccc3c(c2)C[C@@H](NC(=O)c2cc4n(n2)CC(CCSCC(F)(F)F)O4)CO3)n1` (stereo partly drawn) [Example 457], the values for the IC50 in data set [1] and in data set [2] were not below 3 µM and less than 1 µM, respectively.

Turning to `Cn1cc(-c2ccc3c(c2)C[C@@H](NC(=O)c2cc4n(n2)CC(CCOCC2CC2)O4)CO3)cn1` (stereo partly drawn) [Example 460], the IC50 in data set [1] is not below 3 µM; in data set [2], less than 1 µM.

Take `Cn1ccc(-c2ccc3c(c2)C[C@@H](NC(=O)c2cc4n(n2)CC(CCOCC2CC2)O4)CO3)n1` (stereo partly drawn) [Example 461]: the IC50 was 1 to 3 µM in data set [1] and less than 1 µM in data set [2].

Consider `O=C(N[C@H]1COc2ccc(CCOC(F)(F)F)cc2C1)c1cc2n(n1)CC(COC(F)F)O2` (stereo partly drawn) [Example 462], for which the 50% inhibitory concentration (IC50) in data set [1] was not below 3 µM; in data set [2] it was less than 1 µM.

As to `N#Cc1ccc2c(c1)C[C@@H](NC(=O)c1cc3n(n1)CC(COCC1CCC1)O3)CO2` (stereo partly drawn) [Example 464], the IC50 in data set [1] was not below 3 µM; in data set [2], less than 1 µM.

For the molecule `O=C(N[C@H]1COc2ccc(CC(F)F)cc2C1)c1cc2n(n1)CC(CCOCC(F)(F)F)O2` (stereo partly drawn) [Example 466], the half-inhibitory concentration (IC50) is 1 to 3 µM in data set [1] and less than 1 µM in data set [2].

`COc1ncc(-c2ccc3c(c2)C[C@@H](NC(=O)c2cc4n(n2)CC(COCC2CC2)O4)CO3)cn1` (stereo partly drawn) [Example 468]: the IC50 in data set [1] was not below 3 µM; in data set [2] it was less than 1 µM.

As for `N#Cc1ccc2c(c1)C[C@@H](NC(=O)c1cc3n(n1)CC(CCOC1CCC1)O3)CO2` (stereo partly drawn) [Example 470], the half-inhibitory concentration (IC50) in data set [1] was 1 to 3 µM; in data set [2] it was less than 1 µM.

For `O=C(N[C@H]1COc2ccc(Cl)cc2C1)c1nn2c(c1-c1ccccc1)OCCCC2` [Example 481], the results for the IC50 in data set [1] and in data set [2] were not below 3 µM and less than 1 µM, respectively.

On to `O=C(N[C@H]1COc2ccccc2C1)c1cc2n(n1)CCN(CC(F)(F)C(F)(F)F)C2` [Example 487], for which the figures for the IC50 in data set [1] and in data set [2] were 1 to 3 µM and less than 1 µM, respectively.

As for `O=C(N[C@H]1COc2ccccc2C1)c1cc2n(n1)CCN(CC1CC(F)(F)C1)C2` [Example 488], the concentration for half-maximal inhibition (IC50) is not below 3 µM in data set [1] and less than 10 µM in data set [2].

As for `N#Cc1ccc2c(c1)C[C@@H](NC(=O)c1cc3n(n1)CCN(CC(F)(F)C(F)(F)F)C3)CO2` [Example 489], the IC50 in data set [1] was not below 3 µM; in data set [2], less than 10 µM.

In the case of `O=C(N[C@H]1COc2ccccc2C1)c1cc2n(n1)CCN(CC(C1CC1)C1CC1)C2` [Example 490], the half-maximal inhibitory concentration (IC50) in data set [1] is not below 3 µM; in data set [2], less than 10 µM.

With `N#Cc1ccc2c(c1)C[C@@H](NC(=O)c1cc3n(n1)CCN(CCC1CC1)C3)CO2` [Example 491], the IC50 is not below 3 µM in data set [1] and less than 10 µM in data set [2].

Turning to `O=C(N[C@H]1COc2ccc(C(F)F)cc2C1)c1cc2n(n1)CCN(Cc1ccccn1)C2` [Example 492], the results for the IC50 in data set [1] and in data set [2] were not below 3 µM and less than 10 µM, respectively.

In the case of `O=C(N[C@H]1COc2ccc(Cl)cc2C1)c1cc2n(n1)CCN(CC(C(F)(F)F)C(F)(F)F)C2` [Example 493], the IC50 in data set [1] was 1 to 3 µM; in data set [2], less than 1 µM.

In the case of `O=C(N[C@H]1COc2ccc(Cl)cc2C1)c1cc2n(n1)CCN(CC1CCC1(F)F)C2` (stereo partly drawn) [Example 494], the half-inhibitory concentration (IC50) in data set [1] was 1 to 3 µM; in data set [2] it was less than 1 µM.

For `O=C(N[C@H]1COc2ccc(Cl)cc2C1)c1cc2n(n1)CCN(CC(F)(F)C1CC1)C2` [Example 495], the results for the IC50 in data set [1] and in data set [2] were not below 3 µM and less than 1 µM, respectively.

On to `N#Cc1ccc2c(c1)C[C@@H](NC(=O)c1cc3n(n1)CCN(CCC1CCC1)C3)CO2` [Example 496], for which the IC50 was 1 to 3 µM in data set [1] and less than 1 µM in data set [2].

A word on the IC50: it is the concentration that inhibits the measured activity by half. Low values mean higher potency, high ones lower potency.
